{"source": "patent EP0497303B1", "about": "“Carbamic acid derivatives and method for preparing the same” (KYORIN PHARMACEUTICAL CO., LTD., priority 1991, dated 1992)", "test_system": "amnesia induced by exposure to carbon dioxide gas", "test": "Action against amnesia induced by exposure to carbon dioxide gas (step-through passive avoidance)", "format": "in vivo, Std: ddy strain male mice", "conditions": "for Reaction latency(sec) Mean±S.E: orally immediately after exposure to carbon dioxide gas and one hour before retention trial, retention trial after 24 hours, maximum 300 seconds; for Rate of improvement (%): orally, relative to CO2 treated and non-treated groups", "description": "The apparatus used was a passive avoidance apparatus of a step-through type (made by O'Hara Co., Ltd.). In the aquisition trial, each mouse was placed in the light compartment, a guillotine door of partition thereof was opened after 10 seconds, the guillotine door was closed as soon as the mouse moved into the dark compartment and an electric shock of 33 - 50 v was given for 1 second through the metal grid bars of the floor. Immediately after the electric shock was given, the mouse was taken out and was accommodated in a container having volume of ca. 300 ml filled with carbon dioxide gas. After immediately exposed to carbon dioxide gas having flow rate of ca. 5 liter/min. for 25 - 45 seconds, the mouse was taken out and was reanimated by artificial breathing. The retention trial was carried out after 24 hours. In the retention trial, the mouse was again placed in the light compartment, the time till the movement to the dark compartment was measured as a reaction latency until maximum 300 seconds and the mouse showing latency beyond it was deemed as 300 seconds. In addition, immediately after aquisition trial, a group not to exposed to carbon dioxide gas (comparison group of non-amnesia) was also made. The mouse was grouped per 10 - 30, the subject medicament was orally administered immediately after exposed to carbon dioxide gas and one hour before the retention trial. Rate of improvement =(Latency of CO2 -drug treated group - Latency of carbon dioxide exposed group)/(Latency of non-dementia group - Latency of carbon dioxide exposed group)x 100 [formula]"}
{"molecule": "CN1CCCC(OC(=O)Nc2ccccc2)C1", "note": "(centres unmarked) [Compound A, 3-(1-methylpiperidinyl) phenylcarbamate]", "values": [{"measurement": "Reaction latency(sec) Mean±S.E", "setting": "Dose 100 mg/kg", "result": "175.3 ± 36.7", "unit": "s"}, {"measurement": "Rate of improvement (%)", "setting": "Dose 100 mg/kg", "result": 15.2, "unit": "%"}]}
{"molecule": "O=C(Nc1ccc(Cl)cc1)OC1CCN(c2ccncc2)CC1", "note": "[Example 2]", "values": [{"measurement": "Reaction latency(sec) Mean±S.E", "setting": "Dose 10 mg/kg", "result": "150.7 ± 27.1", "unit": "s"}, {"measurement": "Rate of improvement (%)", "setting": "Dose 10 mg/kg", "result": 42.9, "unit": "%"}, {"measurement": "Reaction latency(sec) Mean±S.E", "setting": "Dose 30 mg/kg", "result": "231.2 ± 19.0", "unit": "s"}, {"measurement": "Rate of improvement (%)", "setting": "Dose 30 mg/kg", "result": 76.8, "unit": "%"}]}
{"molecule": "O=C(Nc1ccc(Cl)cc1)OC1CCCN(c2ccncc2)C1", "note": "(centres unmarked) [Example 49]", "values": [{"measurement": "Reaction latency(sec) Mean±S.E", "setting": "Dose 10 mg/kg", "result": "154.0 ± 27.2", "unit": "s"}, {"measurement": "Reaction latency(sec) Mean±S.E", "setting": "Dose 30 mg/kg", "result": "183.7 ± 26.3", "unit": "s"}, {"measurement": "Rate of improvement (%)", "setting": "Dose 30 mg/kg", "result": 45.3, "unit": "%"}]}
{"molecule": "C1=Cc2cccc(OCC3CNCCO3)c2C1", "note": "(centres unmarked) [Indeloxazine]", "values": [{"measurement": "Reaction latency(sec) Mean±S.E", "setting": "Dose 40 mg/kg", "result": "219.3 ± 17.8", "unit": "s"}, {"measurement": "Rate of improvement (%)", "setting": "Dose 40 mg/kg", "result": 30.1, "unit": "%"}, {"measurement": "improving activity to disturbance of memory", "setting": "summary in words of Table 1", "result": "vitiated or not enough"}]}
{"molecule": "COC(=O)C1=C(C)NC(C)=C(C(=O)OCCN(C)Cc2ccccc2)C1c1cccc([N+](=O)[O-])c1", "note": "(centres unmarked) [Nicardipine]", "values": [{"measurement": "Reaction latency(sec) Mean±S.E", "setting": "Dose 5 mg/kg", "result": "92.9 ± 28.1", "unit": "s"}, {"measurement": "Rate of improvement (%)", "setting": "Dose 5 mg/kg", "result": -59.8, "unit": "%"}]}
